Reference: PubChem BioAssay (NCI)
“And” between values parts separate entries of the source, which are not always exact repeats. Equal entries are not always repeated.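 Test compounds were applied to cells in 96-well plates for 48 hours at 5 doses. GI50 = concentration required for 50% inhibition of growth. TGI marks complete inhibition of growth.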

Assays:
Test in all cases: growth of human tumour cells (NCI), 48 h
MOLT-4 leukemia = tested on: MOLT-4 leukemia
OVCAR-3 ovarian = tested on: OVCAR-3 ovarian
SF-539 CNS = tested on: SF-539 CNS
SN12C renal = tested on: SN12C renal
OVCAR-8 ovarian = tested on: OVCAR-8 ovarian
HT29 colon = tested on: HT29 colon
A549 NSCLC = tested on: A549 NSCLC
SW-620 colon = tested on: SW-620 colon
IGROV1 ovarian = tested on: IGROV1 ovarian
K-562 leukemia = tested on: K-562 leukemia

Row | SMILES | TGI (MOLT-4 leukemia) | TGI (OVCAR-3 ovarian) | TGI (SF-539 CNS) [µM] | TGI (SN12C renal) [µM] | TGI (OVCAR-8 ovarian) [µM] | TGI (HT29 colon) | TGI (A549 NSCLC) [µM] | TGI (SW-620 colon) [µM] | TGI (IGROV1 ovarian) | TGI (K-562 leukemia) | GI50 (MOLT-4 leukemia) [µM] | GI50 (OVCAR-3 ovarian) [nM] | GI50 (SF-539 CNS) | GI50 (SN12C renal) | GI50 (OVCAR-8 ovarian) [nM] | GI50 (HT29 colon) [nM] | GI50 (A549 NSCLC) [nM] | GI50 (SW-620 colon) | GI50 (IGROV1 ovarian) [µM] | GI50 (K-562 leukemia) [nM]
1 | O=c1[nH]nc(-c2ccccc2)c(-c2ccccc2)c1-n1nc(-c2ccccc2)c2ccccc2c1=O | 88.7 µM | > 100 µM | > 100 | > 100 | > 100 | > 100 µM | > 100 | > 100 | > 100 µM | > 100 µM | – | – | – | – | – | – | – | – | – | –
2 | [O-][n+]1onc2c3nn(-c4ccccc4)nc3ccc21 | > 100 µM | 72 µM | > 100 | > 100 | > 100 | > 100 µM | > 100 | > 100 | > 100 µM | > 100 µM | – | – | – | – | – | – | – | – | – | –
3 | CC[C@]1(O)C[C@@H]2CN(Cc3c([nH]c4ccccc34)[C@@](C(=O)OC)(c3cc4c(cc3OC)N(C)[C@H]3[C@@](O)(C(=O)OC)[C@H](OC(C)=O)[C@]5(CC)[C@@H]6C[C@@H]6CN6CC[C@]43[C@@H]65)C2)C1 | > 4.38 µM | – | – | > 4.38 | > 4.38 | > 4.38 µM | > 4.38 | > 4.38 | > 4.38 µM | > 4.38 µM | 0.0484 | 16.2 | 36.3 nM | 0.232 µM | 318 | 31.1 | 234 | 70.1 nM | 0.452 | 27.9
4 | CC(C)Oc1cc(OCC(=O)O)cc(C(=O)N(CCC(N)=O)C(=O)Nc2ccc(C(=O)O)cc2OC(C)C)c1 | > 100 µM | > 100 µM | > 100 | > 100 | > 100 | > 100 µM | > 100 | > 100 | > 100 µM | > 100 µM | > 100 | > 100000 | > 100000 nM | > 100 µM | > 100000 | > 100000 | > 100000 | > 100000 nM | > 100 | > 100000
5 | CC(C)(O)Cn1c(=O)c(Oc2ccc(F)cc2F)cc2cnc(NC3CCOCC3)nc21 | > 25 µM | > 25 µM | > 25 | > 25 | > 25 | > 25 µM | > 25 | > 25 | > 25 µM | > 25 µM | > 25 | > 25000 | > 25000 nM | > 25 µM | > 25000 | > 25000 | > 25000 | > 25000 nM | > 25 | > 25000
6 | C#Cc1cccc(NC(=O)Nc2ccccc2NC(=O)CCl)c1 | > 82.5 µM | 25.5 µM | 32.4 | 33.5 | > 82.5 | > 82.5 µM | > 82.5 | 45.2 | 28 µM | > 82.5 µM | 25.6 | 13500 | 13800 nM | 15.1 µM | 27100 | 27600 | 25400 | 19300 nM | 13.6 | 22800
7 | CC(=O)NNc1nc(C)c(C(/C=C/c2ccc(/C=C/C(=N\NC(=O)c3ccncc3)c3sc(NNC(C)=O)nc3C)cc2)=N/NC(=O)c2ccncc2)s1 | > 100 µM | > 100 µM | > 100 | > 100 | > 100 | > 100 µM | > 100 | > 100 | > 100 µM | > 100 µM | – | – | – | – | – | – | – | – | – | –
8 | CC/C=C/[C@@H]1C=C[C@@H]2CCC[C@H]2[C@@H]1CC[C@H](O)[C@H](C)N | 3.68 µM | 2.93 µM | 3.03 | 18.6 | 5.54 | 2.77 µM | 7.05 | 3 | 2.92 µM | 2.67 µM | 1.72 | 1590 | 1670 nM | 4.25 µM | 2300 | 1460 | 2260 | 1640 nM | 1.5 | 1380
9 | [N-]=[N+]=Nc1ccc(S(=O)(=O)Oc2cc(OS(=O)(=O)c3ccc(N=[N+]=[N-])cc3)cc(OS(=O)(=O)c3ccc(N=[N+]=[N-])cc3)c2)cc1 | > 100 µM | > 100 µM | > 100 | > 10 | > 10 | > 100 µM | > 100 | > 10 | > 100 µM | > 100 µM | – | – | – | – | – | – | – | – | – | –
10 | COc1ccc(C(=O)c2cc3c(N)c(C(=O)Nc4cccc(Cl)c4)sc3nc2C)cc1 | > 33.3 µM | 3.12 µM | 3.2 | > 33.3 | > 33.3 | > 33.3 µM | > 33.3 | > 33.3 | > 33.3 µM | > 33.3 µM | 1.89 | 1010 | 995 nM | 1.96 µM | 1890 | 1200 | 1670 | 1670 nM | 1.76 | 1360
11 | COC(=O)C1=C(O)C(O)=C(C(=O)OC)CC1 | > 100 µM | > 100 µM | > 100 | > 100 | > 100 | > 100 µM | > 100 | > 100 | > 100 µM | > 100 µM | – | – | – | – | – | – | – | – | – | –
12 | CCc1nc(N)nc(N)c1-c1ccc(Cl)cc1 | > 100 µM | > 100 µM | > 100 | > 100 | > 100 | > 100 µM | > 100 | > 100 | > 100 µM | > 26.5 µM | 25.6 | 36300 | 9430 nM | 5.04 µM | – | – | 2230 | 3990 nM | 11.4 | –
13 | COc1ccc(CN(O)C2C(CO)OC(n3cc(I)c(=O)[nH]c3=O)C2O)cc1 (stereo not given) | > 100 µM | > 100 µM | > 100 | > 100 | > 100 | > 100 µM | > 100 | > 100 | > 100 µM | > 100 µM | – | – | – | – | – | – | – | – | – | –
14 | Cc1cc(O)c2c(c1)C[C@@H](O)C1=C2C(=O)c2c(O)ccc(OC3CC(O)C(OC4CC(OC5CCC(OC6CC(O)C(OC7CC(OC8CCC(O)C(C)O8)C(O)C(C)O7)C(C)O6)C(C)O5)C(O)C(C)O4)C(C)O3)c2C1=O (stereo not given in full) | 0.216 µM and 0.343 µM | 0.138 µM and 0.765 µM | – | – | – | 0.318 µM and 2.3 µM | – | – | 0.344 µM and 2.47 µM | 0.267 µM and 0.457 µM | 0.0541 | 223 | 391 nM and 1310 nM | 0.307 µM and 1.94 µM | 364 | 847 | 2380 | 362 nM and 216 nM | 1.14 | 144
15 | C=C1C(=O)OC2C1C(OC(=O)/C(=C/C)COC(C)=O)CC1(CO1)C1C(OC(=O)/C(=C/C)CO)C=C(C)C21 (stereo not given) | 2.24 µM | 12.2 µM | 19.5 | 3.81 | 25.3 | 7.48 µM | 24.8 | 9.56 | 3.82 µM | 10 µM | – | – | – | – | – | – | – | – | – | –
16 | O=C(CC(O)(c1ccccc1)c1ccc(Cl)cc1)NC(=O)c1ccccc1O (stereo not given) | 46.7 µM | 27.4 µM | 46.8 | 32 | 61.3 | 53 µM | > 100 | > 100 | > 100 µM | > 100 µM | – | – | – | – | – | – | – | – | – | –
17 | Cc1c(C(=O)/C=C/c2ccco2)[n+](=O)c2ccccc2n1[O-] | > 100 µM | > 100 µM | > 100 | > 100 | > 100 | > 100 µM | > 100 | > 100 | > 100 µM | > 100 µM | – | – | – | – | – | – | – | – | – | –
18 | COc1ccc(C(=O)CC2(O)C(=O)Nc3c(Cl)ccc(Cl)c32)cc1 (stereo not given) | > 78.5 µM | 3.75 µM | 6.96 | > 95.1 | 60.3 | > 57.9 µM | > 100 | > 100 | > 100 µM | > 100 µM | 3.18 | 701 | 1640 nM | 4.6 µM | 3620 | 491 | 1550 | 503 nM | 4.95 | 403
19 | C=C1C(=O)OC(CCCCCCCC)C1C(=O)O (stereo not given) | 54 µM | 19.5 µM | 31.6 | 28.5 | 45.9 | 47.2 µM | > 67.6 | 30.7 | 48.3 µM | > 75.8 µM | 22.2 | 7660 | 17000 nM | 14.3 µM | 19400 | 22100 | 23600 | 15200 nM | 21.8 | 27900
